One compound from US11542475B2, “3D microphysiologic system” (Northwestern University, priority 2014, dated 2023) can be followed below.

The subject of assay [1] is progesterone receptor (PR) expression in human fimbriae. As to the kind of experiment: 3D human fimbriae culture: progesterone receptor immunohistochemistry. Conditions: 1 nM and 10 nM E2. It counts as cell-based. The method, then:
Tissues were micro-dissected in alpha-MEM (Gibco, Carlsbad, Calif.) with 1% penicillin-streptomycin (Invitrogen, Carlsbad, Calif.). Individual fimbriae were separated into ˜50 mm^3 pieces. A portion of the tissue was fixed in 2% paraformaldehyde for use as an uncultured control. For optimization studies, fimbriae were cultured without matrix, encapsulated in 0.5% alginate, or encapsulated in 0.5% alginate with 1 mg/ml collagen and 0.1% fibronectin, as previously described for murine cultures (King et al. J Vis Exp. 2011.; herein incorporated by reference in its entirety). For subsequent treatments, 0.5% alginate encapsulated fimbriae were randomly assigned to treatment groups, with at least five fimbriae per condition, per patient, in a 24-well plate containing alpha-MEM and 1% penicillin-streptomycin. […] Prior to fixation, fimbriae were labeled with 10 μM bromodeoxyurine (BrdU, Sigma-Aldrich) for 24 hours to denote proliferating cells. Fimbriae cultures were fixed (2% paraformaldehyde) followed by dehydration in ethanol and xylene, and embedment in paraffin.
Sections (5 μm) were cut and stained via hematoxylin and eosin for morphological analysis or immunohistochemistry was performed to localize proteins of interest as previously described (King et al. Endocr Relat Cancer. 2011. 18:627-42.; herein incorporated by reference in its entirety). […]

Assay [2] has as its system primary human endocervical cells. As to the kind of experiment: Immunohistochemistry of 3D endocervical cultures (PR, ER, Ki67). The format is cell-based. Conditions: day-14 (E2), day-28 (E2+P4). The method, then:
To represent a 28-day human menstrual cycle in vitro, a stepwise hormone regimen was added to the cells. For the first 7 days, cells were incubated with 0.1 nM E2, followed by 1 nM E2 for the next 7 days (FIG. 45). Then cells were treated for 1 nM E2 and 10 nM P4 for an additional 7 days, followed by 0.1 nM E2 and 50 nM P4 for 5 days. Then media without hormones were added for the final 2 days for a total culture period of 28 days. Media was collected every 48 h and stored at −20° C. For PR antagonist studies, cells were treated with 100 nM RU486 (Sigma, MO) which was added on day-21. To visualize the cells on scaffold, cells were infected with the adenovirus containing pAD-eGFP-RLC (Cell Imaging Core, Northwestern University) (Khuon et al. Journal of cell science 123:431-440.; herein incorporated by reference in its entirety) by adding 2 μl of amplified virus to 3.5 ml of media per […] for 24 h.
Scaffolds were washed twice in PBS, covered with histogel (Fisher Scientific, MA) and fixed in 4% paraformaldehyde for 5 h. Processing and hematoxylin and eosin (H&E) staining was performed at the Northwestern University Center for Reproductive Sciences Histology Core (Chicago, Ill.). […] HRP activity was detected using 3,3′-Diaminobenzidine (DAB) in 1:50 dilution (Dako, CA) as substrate for 30-60 sec and then counterstained with hematoxylin. […]

With `C[C@]12CC[C@@H]3c4ccc(O)cc4CC[C@H]3[C@@H]1CC[C@@H]2O` [E2, estradiol], the “progesterone receptor (PR) expression compared to vehicle control” value in assay [1] is reported as “induction”. The “Ki67 staining compared to control” value in assay [2] is reported as “increased staining”.
